Converted amounts (≈) assume the structure as drawn.
How the values were obtained:
[1] = target: T1, elastase from porcine pancreas (Sus scrofa, UniProt P00772); test: spectrophotometric elastase inhibition assay; format: biochemical; settings: read-out: IC50 (mg/mL) / Elastase inhibition (converted)
T1 construct: gene CELA1; native enzyme from pancreas, lyophilised powder (Sigma-Aldrich); mature form
Description: spectrophotometric elastase inhibition assay on elastase from porcine pancreas

[2] = target: T2, metalloproteinase-1 (MMP-1) from Clostridium histolyticum (ChC); test: spectrophotometric MMP-1 (collagenase) inhibition assay; format: biochemical, Hathewaya histolytica; settings: substrate FALGPA; positive control
T2 construct: gene colG; native collagenase preparation (Sigma-Aldrich)
Description: spectrophotometric MMP-1 (collagenase) inhibition assay on metalloproteinase-1 (MMP-1) from Clostridium histolyticum (ChC)

T1 sequence (P00772 27-266): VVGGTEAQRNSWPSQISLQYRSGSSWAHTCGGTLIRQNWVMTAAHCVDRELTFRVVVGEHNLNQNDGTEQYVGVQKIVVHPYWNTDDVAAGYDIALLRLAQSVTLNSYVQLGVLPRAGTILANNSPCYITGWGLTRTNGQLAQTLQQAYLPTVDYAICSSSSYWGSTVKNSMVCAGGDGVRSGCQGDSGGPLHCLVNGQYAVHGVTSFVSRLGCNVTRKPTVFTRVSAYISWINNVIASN

Question: With `O=C(O[C@@H]1Cc2c(O)cc(O)cc2O[C@@H]1c1cc(O)c(O)c(O)c1)c1cc(O)c(O)c(O)c1` [EGCG, epigallocatechin gallate] as the molecule, how does the IC50 [1] read?
Answer: The IC50 was 2.18 µM.

Question: Which “IC50 (mg/mL) / MMP-1 inhibition” value [2] does the source give for `CC1(C)CC[C@]2(C(=O)O)CC[C@]3(C)C(=CC[C@@H]4[C@@]5(C)CC[C@H](O)C(C)(C)[C@@H]5CC[C@]43C)[C@@H]2C1` [OA, oleanolic acid] here?
Answer: The value was 0.002 ± 0.000 mg/mL (≈ 4.38 µM).

From PMC8786250, “Comparison of chemical profiles, antioxidation, inhibition of skin extracellular matrix degradation, and anti-tyrosinase activity between mycelium and fruiting body of Cordyceps militaris and Isaria tenuipes” (Pharmaceutical Biology, 2022)
